± gives the expanded uncertainty stated by the source.
How the values were obtained:
[1] = Liquid, Ebulliometric method (Recirculating still)
[2] = refractive index (Na D-line) (dimensionless); conditions: 293.15 K; 101.33 kPa; Liquid; Standard Abbe refractometry

SMILES	vapor or sublimation pressure ([1]; 328.17 K) [kPa]	vapor or sublimation pressure ([1]; 338.17 K) [kPa]	vapor or sublimation pressure ([1]; 348.16 K) [kPa]	refractive index [2]	vapor or sublimation pressure ([1]; 323.21 K) [kPa]	vapor or sublimation pressure ([1]; 333.21 K) [kPa]	vapor or sublimation pressure ([1]; 343.21 K) [kPa]
CCCCCCCCCC [decane]	1.18 ± 0.92	1.93 ± 0.92	3.24 ± 0.92	1.4122 ± 0.002	–	–	–
CCCCCCCCC [nonane]	–	–	–	1.4074 ± 0.002	2.417 ± 0.92	4.027 ± 0.92	6.331 ± 0.92
CCO [ethanol]	37.53 ± 0.98	58.6 ± 1.1	88.83 ± 1.1	1.3616 ± 0.002	29.58 ± 0.97	47.04 ± 1	72.39 ± 1.1

— the NIST ThermoML archive (doi:10.1021/acs.jced.7b00875)
